The source of these data is patent US7772192B2, “Compositions and methods for treatment of disease with acetylated disaccharides” (The Regents of the University of California, priority 2003, dated 2010).

For the assay, the system named is LS180 cells. The assay is described as follows: Biodistribution of pretreated radiolabeled tumor cells in mice. Type of assay: in vivo. As for the experimental part:
Biodistribution studies in mice. LS180 cells were grown for 3 days in the presence or absence of 50 μM AcGnG-NM. [^3H-methyl]thymidine (10 μCi/ml, NEN Life Sciences Products) was added to the medium, and cells were incubated for another 3 days. The cells were then harvested with EDTA, resuspended in sterile 0.9% saline, and injected (1×10^5 cells/100 μL) into the lateral tail vein of anesthetized (inhaled methoxyflurane, Janssen Pharmaceuticals) 6-8 week-old wildtype C57BL/6 mice or P-selectin deficient mice bred on the same background (Jackson Laboratory). Mayadas et al., Cell, 74: 541-554, 1993. […] The organs were digested at 55° C. overnight with Proteinase K (0.15 μg/ml, Boehringer Mannheim) in 2 mL PBS containing 1% sodium dodecyl sulfate, and homogenized by repeated passage through an 18 gauge needle. The amount of radioactive DNA in the blood and the organ extracts was then determined using an Easy DNA Kit (Invitrogen) and liquid scintillation spectrometry. The total counts in blood were estimated by assuming a total blood volume of 2 mL per mouse. Proper attention has been given to experimental ethical considerations towards animals as prescribed by the Animal Subjects Program at the University of California.
Altered biodistribution of AcGnG-NM treated tumor cells. The lung is the major “first-pass” adhesion target for tumor cells introduced into the venous circulation. […] Radiolabeled cells were injected into the lateral tail vein of C57BL/6 mice, and allowed to circulate for 3 hours. Mice were sacrificed and DNA was extracted from organ homogenates and whole blood. The counts were normalized to the total recovered counts, which typically represented 80-90% of the injected samples. In FIG. 6A, each value represents the average recoveries from 4 wildtype mice±standard deviation from the mean. In FIG. 6B, the experiment was repeated in P-selectin deficient C57BL/6 mice that were injected with either control- or AcGnG-NM-treated LS180 cells. […]

The mark [1] stands for this setting: wildtype C57BL/6 mice, 3 hours, cells pretreated with 50 μM.

For the substance “GlcNAcβ1,3Galβ-O-naphthalenemethanol [AcGnG-NM]”, the “distribution of treated versus untreated cells” value (P-selectin deficient mice) is listed as “no difference”. Under setting [1], the “counts recovered in the blood compartment” value is “corresponding increase” and the “seeding of the lungs” value is reported as “substantially reduced”.
